One experiment concerns the target Carbonic anhydrase 1 (Homo sapiens, UniProt P00915).
The next experiment concerns the target T1, Carbonic anhydrase 4 (Bos taurus, UniProt Q95323).
T1 sequence (Q95323 whole entry): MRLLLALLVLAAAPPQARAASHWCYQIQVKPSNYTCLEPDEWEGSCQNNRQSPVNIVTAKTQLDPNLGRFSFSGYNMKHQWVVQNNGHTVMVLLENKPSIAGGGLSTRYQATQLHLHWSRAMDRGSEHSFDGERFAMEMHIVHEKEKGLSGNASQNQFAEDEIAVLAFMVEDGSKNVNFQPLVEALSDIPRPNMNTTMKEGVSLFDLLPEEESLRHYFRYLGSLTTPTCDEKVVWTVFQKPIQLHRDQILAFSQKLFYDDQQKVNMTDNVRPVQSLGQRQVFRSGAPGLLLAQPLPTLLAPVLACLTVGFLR

Sequence of Carbonic anhydrase 1 (P00915 whole entry): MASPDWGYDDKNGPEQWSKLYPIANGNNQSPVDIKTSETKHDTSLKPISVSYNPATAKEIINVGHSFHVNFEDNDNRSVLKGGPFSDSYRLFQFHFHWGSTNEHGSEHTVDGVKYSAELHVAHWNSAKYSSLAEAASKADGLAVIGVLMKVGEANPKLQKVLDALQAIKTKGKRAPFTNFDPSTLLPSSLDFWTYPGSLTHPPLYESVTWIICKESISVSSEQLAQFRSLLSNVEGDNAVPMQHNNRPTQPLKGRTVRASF
Description for Carbonic anhydrase 1: Inhibitory activity against human carbonic anhydrase I (CA1)
Description for Carbonic anhydrase 4: Inhibitory activity against bovine carbonic anhydrase IV (CA4), isolated from bovine lung microsomes

The term Ki denotes a dissociation constant, usually derived from enzyme kinetics or from competition with a known ligand. On to `Cc1cc(-c2ccccc2)cc(C)[n+]1CC(=O)NCc1ccc(S(N)(=O)=O)cc1`, for which the Ki on Carbonic anhydrase 1 turned out to be 1250 nM; at Carbonic anhydrase 4 it was 50 nM.
Consider `Cc1cc(C)[n+](CC(=O)Nc2nccc(Nc3ccc(S(N)(=O)=O)cc3)n2)c(C)c1`, for which the inhibition constant (Ki) at Carbonic anhydrase 1 was 52 nM; on Carbonic anhydrase 4, 69 nM.
For `CCc1cc(-c2ccccc2)cc(CC)[n+]1CC(=O)Nc1cccc(S(N)(=O)=O)c1` the same measures were 21800 nM and 310 nM.
For `Cc1cc(-c2ccccc2)cc(C)[n+]1CC(=O)Nc1nccc(Nc2ccc(S(N)(=O)=O)cc2)n1` the same measures were 35 nM and 50 nM.
`CCc1cc(-c2ccccc2)cc(CC)[n+]1CC(=O)/N=c1/sc(S(N)(=O)=O)nn1C`: the Ki on Carbonic anhydrase 1 is 300 nM; at Carbonic anhydrase 4, 25 nM.
Regarding `CCc1cc(-c2ccccc2)cc(CC)[n+]1CC(=O)Nc1ccc(S(N)(=O)=O)cc1F`, the inhibitory constant (Ki) on Carbonic anhydrase 1 amounted to 750 nM; at Carbonic anhydrase 4, 39 nM.
Take `Cc1cc(-c2ccccc2)cc(C)[n+]1CC(=O)Nc1c(S(N)(=O)=O)cc(S(N)(=O)=O)c(Cl)c1Cl`: the values for the inhibitory constant (Ki) at Carbonic anhydrase 1 and at Carbonic anhydrase 4 were 380 nM and 31 nM, respectively.
Take `CC(C)c1cc(-c2ccccc2)cc(C(C)C)[n+]1CC(=O)Nc1nccc(Nc2ccc(S(N)(=O)=O)cc2)n1`: the inhibitory constant (Ki) at Carbonic anhydrase 1 came out at 47 nM; at Carbonic anhydrase 4, 62 nM.
With `Cc1cc(C)[n+](CC(=O)OCCOc2ccc3nc(S(N)(=O)=O)sc3c2)c(C)c1`, the Ki on Carbonic anhydrase 1 was determined as 12 nM; on Carbonic anhydrase 4, 33 nM.
Take `CCc1cc(-c2ccccc2)cc(CC)[n+]1CC(=O)NCCc1ccc(S(N)(=O)=O)cc1`: the inhibitory constant (Ki) on Carbonic anhydrase 1 is 750 nM; at Carbonic anhydrase 4 it was 61 nM.
Consider `CC(C)c1cc(-c2ccccc2)cc(C(C)C)[n+]1CC(=O)Nc1ccc2nc(S(N)(=O)=O)sc2c1`, for which the inhibition constant Ki at Carbonic anhydrase 1 stood at 13 nM; at Carbonic anhydrase 4, 38 nM.
Turning to `CC(C)c1cc(-c2ccccc2)cc(C(C)C)[n+]1CC(=O)Nc1cc(Cl)c(S(N)(=O)=O)cc1S(N)(=O)=O`, the inhibition constant (Ki) on Carbonic anhydrase 1 came out at 350 nM; on Carbonic anhydrase 4 it was 46 nM.
Take `Cc1cc(C)[n+](CC(=O)Nc2ccc(S(N)(=O)=O)cc2I)c(C)c1`: the inhibition constant Ki is 810 nM on Carbonic anhydrase 1 and 78 nM at Carbonic anhydrase 4.
For `CCc1cc(-c2ccccc2)cc(CC)[n+]1CC(=O)Nc1cc(C(F)(F)F)c(S(N)(=O)=O)cc1S(N)(=O)=O`, the results for the Ki on Carbonic anhydrase 1 and at Carbonic anhydrase 4 were 310 nM and 33 nM, respectively.
In the case of `CC(C)c1cc(-c2ccccc2)cc(C(C)C)[n+]1CC(=O)Nc1ccc(S(N)(=O)=O)cc1F`, the inhibition constant Ki was 750 nM at Carbonic anhydrase 1 and 39 nM on Carbonic anhydrase 4.
Turning to `Cc1cc(-c2ccccc2)cc(C)[n+]1CC(=O)OCc1ccc(S(N)(=O)=O)cc1`, the Ki at Carbonic anhydrase 1 was 1350 nM; on Carbonic anhydrase 4, 75 nM.
As to `Cc1cc(-c2ccccc2)cc(C)[n+]1CC(=O)Nc1ccc(S(N)(=O)=O)cc1Br`, the inhibitory constant (Ki) at Carbonic anhydrase 1 was 600 nM; at Carbonic anhydrase 4, 35 nM.
In the case of `Cc1cc(C)[n+](CC(=O)Nc2ccc(S(=O)(=O)Nc3cccc(S(N)(=O)=O)c3)cc2)c(C)c1`, the Ki was found to be 61 nM on Carbonic anhydrase 1 and 86 nM at Carbonic anhydrase 4.
`Cc1cc(C)[n+](CC(=O)OCCc2ccc(S(N)(=O)=O)cc2)c(C)c1`: the values for the Ki at Carbonic anhydrase 1 and at Carbonic anhydrase 4 were 1700 nM and 130 nM, respectively.
`Cc1cc(C)[n+](CC(=O)NCCc2ccc(S(N)(=O)=O)cc2)c(C)c1`: the Ki at Carbonic anhydrase 1 is 805 nM; on Carbonic anhydrase 4 it was 71 nM.
As to `CC(C)c1cc(-c2ccccc2)cc(C(C)C)[n+]1CC(=O)NCCc1ccc(S(N)(=O)=O)cc1`, the Ki at Carbonic anhydrase 1 was 775 nM; on Carbonic anhydrase 4 it was 70 nM.
`Cc1cc(-c2ccccc2)cc(C)[n+]1CC(=O)Nc1ccccc1S(N)(=O)=O`: the Ki on Carbonic anhydrase 1 stood at 25300 nM; at Carbonic anhydrase 4, 290 nM.
On to `Cc1cc(C)[n+](CC(=O)Oc2ccc3nc(S(N)(=O)=O)sc3c2)c(C)c1`, for which the inhibition constant Ki on Carbonic anhydrase 1 came out at 13 nM; on Carbonic anhydrase 4, 29 nM.
With `CC(C)c1cc(-c2ccccc2)cc(C(C)C)[n+]1CC(=O)Nc1c(S(N)(=O)=O)cc(S(N)(=O)=O)c(Cl)c1Cl`, the Ki at Carbonic anhydrase 1 came out at 470 nM; at Carbonic anhydrase 4, 49 nM.
For `CC(C)c1cc(-c2ccccc2)cc(C(C)C)[n+]1CC(=O)OCCOc1ccc2nc(S(N)(=O)=O)sc2c1` the same measures were 11 nM and 30 nM.
On to `CC(C)c1cc(-c2ccccc2)cc(C(C)C)[n+]1CC(=O)NNc1ccc(S(N)(=O)=O)cc1`, for which the inhibition constant Ki on Carbonic anhydrase 1 amounted to 34000 nM; on Carbonic anhydrase 4, 360 nM.
For the compound `Cc1cc(-c2ccccc2)cc(C)[n+]1CC(=O)Nc1cc(Cl)c(S(N)(=O)=O)cc1S(N)(=O)=O`, the inhibition constant Ki stood at 350 nM on Carbonic anhydrase 1 and 30 nM on Carbonic anhydrase 4.
As to `CC(C)c1cc(-c2ccccc2)cc(C(C)C)[n+]1CC(=O)Nc1nnc(S(N)(=O)=O)s1`, the inhibitory constant (Ki) at Carbonic anhydrase 4 came out at 36 nM.
`Cc1cc(-c2ccccc2)cc(C)[n+]1CC(=O)NCCC(=O)Nc1nnc(S(N)(=O)=O)s1`: on Carbonic anhydrase 4, the inhibition constant (Ki) stood at 15 nM.
As to `CC(C)c1cc(-c2ccccc2)cc(C(C)C)[n+]1CC(=O)Nc1ccc(S(=O)(=O)/N=c2/sc(S(N)(=O)=O)nn2C)cc1`, the inhibition constant Ki at Carbonic anhydrase 1 was 15 nM; on Carbonic anhydrase 4, 10 nM.
On to `Cc1cc(-c2ccccc2)cc(C)[n+]1CC(=O)Nc1cccc(S(N)(=O)=O)c1`, for which the figures for the Ki at Carbonic anhydrase 1 and at Carbonic anhydrase 4 were 19600 nM and 280 nM, respectively.
As to `CCc1cc(-c2ccccc2)cc(CC)[n+]1CC(=O)NCc1ccc(S(N)(=O)=O)cc1`, the inhibition constant Ki at Carbonic anhydrase 1 turned out to be 1400 nM; on Carbonic anhydrase 4 it was 67 nM.
`CCc1cc(-c2ccccc2)cc(CC)[n+]1CC(=O)NCCC(=O)Nc1nnc(S(N)(=O)=O)s1` displayed an inhibition constant (Ki) at Carbonic anhydrase 4 of 19 nM.
For `Cc1cc(-c2ccccc2)cc(C)[n+]1CC(=O)Nc1ccc2nc(S(N)(=O)=O)sc2c1`, the results for the Ki at Carbonic anhydrase 1 and at Carbonic anhydrase 4 were 10 nM and 19 nM, respectively.
On to `Cn1nc(S(N)(=O)=O)s/c1=N/S(=O)(=O)c1ccc(N)cc1`, for which the Ki on Carbonic anhydrase 1 stood at 1 nM; on Carbonic anhydrase 4, 0.8 nM.
For `CC(C)c1cc(-c2ccccc2)cc(C(C)C)[n+]1CC(=O)Nc1ccc(S(N)(=O)=O)cc1` the same measures were 15000 nM and 180 nM.
As to `Cc1cc(C)[n+](CC(=O)Nc2cc(Cl)c(S(N)(=O)=O)cc2S(N)(=O)=O)c(C)c1`, the results for the inhibition constant (Ki) at Carbonic anhydrase 1 and on Carbonic anhydrase 4 were 360 nM and 64 nM, respectively.
Consider `Cc1cc(C)[n+](CC(=O)NNc2ccc(S(N)(=O)=O)cc2)c(C)c1`, for which the inhibitory constant (Ki) amounted to 35000 nM on Carbonic anhydrase 1 and 450 nM at Carbonic anhydrase 4.
With `Cc1cc(C)[n+](CC(=O)Nc2c(S(N)(=O)=O)cc(S(N)(=O)=O)c(Cl)c2Cl)c(C)c1`, the inhibitory constant (Ki) at Carbonic anhydrase 1 stood at 550 nM; on Carbonic anhydrase 4, 67 nM.
For the compound `Cc1cc(C)[n+](CC(=O)Nc2ccc(S(=O)(=O)Nc3nnc(S(N)(=O)=O)s3)cc2)c(C)c1`, the Ki on Carbonic anhydrase 1 was determined as 15 nM; at Carbonic anhydrase 4, 12 nM.
Take `CC(C)c1cc(-c2ccccc2)cc(C(C)C)[n+]1CC(=O)Nc1cccc(S(N)(=O)=O)c1`: the inhibitory constant (Ki) at Carbonic anhydrase 1 came out at 23100 nM; at Carbonic anhydrase 4, 345 nM.
For `Cc1cc(-c2ccccc2)cc(C)[n+]1CC(=O)Nc1ccc(S(N)(=O)=O)cc1I` the same measures were 610 nM and 59 nM.
With `CC(C)c1cc(-c2ccccc2)cc(C(C)C)[n+]1CC(=O)Nc1ccccc1S(N)(=O)=O`, the Ki at Carbonic anhydrase 1 is 30500 nM; on Carbonic anhydrase 4 it was 350 nM.
The matching figures for `CCc1cc(-c2ccccc2)cc(CC)[n+]1CC(=O)OCCOc1ccc2nc(S(N)(=O)=O)sc2c1`: 10 nM and 25 nM.
Turning to `Cc1cc(C)[n+](CC(=O)Nc2ccc(S(=O)(=O)/N=c3/sc(S(N)(=O)=O)nn3C)cc2)c(C)c1`, the inhibition constant Ki on Carbonic anhydrase 1 was determined as 15 nM.
For the compound `CCc1cc(-c2ccccc2)cc(CC)[n+]1CC(=O)Nc1ccc(S(=O)(=O)Nc2ccc(S(N)(=O)=O)cc2)cc1`, the inhibitory constant (Ki) at Carbonic anhydrase 1 was determined as 46 nM; on Carbonic anhydrase 4, 63 nM.
For the compound `Cc1cc(-c2ccccc2)cc(C)[n+]1CC(=O)Nc1ccc(S(N)(=O)=O)cc1F`, the Ki on Carbonic anhydrase 1 worked out at 700 nM; at Carbonic anhydrase 4, 36 nM.
With `CC(C)c1cc(-c2ccccc2)cc(C(C)C)[n+]1CC(=O)Oc1ccc2nc(S(N)(=O)=O)sc2c1`, the Ki on Carbonic anhydrase 1 is 12 nM; on Carbonic anhydrase 4, 39 nM.
As to `Cc1cc(-c2ccccc2)cc(C)[n+]1CC(=O)NCCc1ccc(S(N)(=O)=O)cc1`, the results for the Ki on Carbonic anhydrase 1 and at Carbonic anhydrase 4 were 720 nM and 46 nM, respectively.
Regarding `CCc1cc(-c2ccccc2)cc(CC)[n+]1CC(=O)Nc1ccc(S(N)(=O)=O)cc1Cl`, the results for the inhibitory constant (Ki) at Carbonic anhydrase 1 and on Carbonic anhydrase 4 were 610 nM and 46 nM, respectively.
The matching figures for `CC(C)c1cc(-c2ccccc2)cc(C(C)C)[n+]1CC(=O)NCc1ccc(S(N)(=O)=O)cc1`: 1450 nM and 75 nM.
The matching figures for `Cc1cc(-c2ccccc2)cc(C)[n+]1CC(=O)OCCc1ccc(S(N)(=O)=O)cc1`: 1100 nM and 69 nM.
In the case of `Cc1cc(-c2ccccc2)cc(C)[n+]1CC(=O)NNc1ccc(S(N)(=O)=O)cc1`, the inhibition constant Ki on Carbonic anhydrase 1 worked out at 26000 nM; at Carbonic anhydrase 4, 310 nM.
For the compound `Cc1cc(-c2ccccc2)cc(C)[n+]1CC(=O)Nc1ccc(S(=O)(=O)Nc2cccc(S(N)(=O)=O)c2)cc1`, the Ki at Carbonic anhydrase 1 stood at 38 nM; on Carbonic anhydrase 4, 55 nM.
For `CC(C)c1cc(-c2ccccc2)cc(C(C)C)[n+]1CC(=O)Nc1ccc(S(N)(=O)=O)cc1Cl` the same measures were 600 nM and 56 nM.
The matching figures for `CCc1cc(-c2ccccc2)cc(CC)[n+]1CC(=O)Nc1ccc2nc(S(N)(=O)=O)sc2c1`: 11 nM and 30 nM.
As for `Cc1cc(-c2ccccc2)cc(C)[n+]1CC(=O)Nc1ccc(S(N)(=O)=O)cc1Cl`, the results for the Ki at Carbonic anhydrase 1 and at Carbonic anhydrase 4 were 600 nM and 38 nM, respectively.
Take `CCc1cc(-c2ccccc2)cc(CC)[n+]1CC(=O)Nc1ccc(S(N)(=O)=O)cc1Br`: the Ki on Carbonic anhydrase 1 is 615 nM; on Carbonic anhydrase 4 it was 55 nM.
`CC(C)c1cc(-c2ccccc2)cc(C(C)C)[n+]1CC(=O)NCCC(=O)Nc1nnc(S(N)(=O)=O)s1` registered a Ki on Carbonic anhydrase 4 of 16 nM.
On Carbonic anhydrase 4, `Nc1cc(C(F)(F)F)c(S(N)(=O)=O)cc1S(N)(=O)=O` [2,4-DISULFAMYLTRIFLUOROMETHYLANILINE] yielded a Ki of 140 nM.
